# Assay results as given in US20140100222A1, “Beta2-ADRENOCEPTOR AGONIST FOR THE TREATMENT OF COUGH” (BOEHRINGER INGELHEIM INTERNATIONAL GMBH, priority 2012, published 2014).
# Marks after values point to notes of the source that are not given here.
# Legend:
# [1] = test system: citric acid induced cough in OVA sensitised guinea pigs; assay: Anti-tussive activity: citric acid induced cough in OVA sensitised guinea pigs (whole body plethysmograph); type: in vivo, guinea pig; settings: for Number of coughs: 2 h before 15 min citric acid challenge, mean; for Anti-tussive effect (%): summary
# Method: Animals—Male albino Dunkin-Hartley guinea pigs (350-550 g; Charles River WIGA GmbH, Sulzfeld, Germany) were used. The animals were housed in groups of 6 in solid floor cages and allowed free access to water and standard food. The guinea pigs were kept in rooms maintained at a constant temperature (22° C.±2° C.) and humidity (60%±15%), with a 12 h light cycle. The experiments were approved by the ethical committee Regierungspräsidium Tübingen, Germany.
# OVA asthma model—On days 1 and 2, the guinea pigs were immunised by subcutaneous injection of 0.5 ml per animal of a solution of ovalbumin (OVA) (40 μg/ml) and aluminium hydroxide [Al (OH)3]. On day 14, these sensitised guinea pigs were challenged with OVA by exposure to an OVA aerosol (1.25 mg/ml) for 5 minutes, using a Dräger Inhalette® (Dräger Medical AG & Co. KgaA, Lübeck, Germany). 30 minutes prior to the challenge, pyrilamine maleate (2 mg/kg i.p.) was administered to protect the animals against bronchospasm. On day 15, the citric acid challenge was given to induce cough. 2 hours before the challenge, the test compound or vehicle (saline) was delivered by intratracheal (i.t.) administration (0.5 ml/kg) under anaesthesia with isoflurane (Forene®, Abbott GmbH and CO. KG, Wiesbaden, Germany).
# Cough recording—Two hours after i.t. application, the citric acid challenge was performed. A whole body plethysmograph manufactured for guinea pigs (Buxco Research Systems, Wilmington, N.C., USA) was used for the experiments. Conscious animals were individually placed, unrestrained, into a whole body plethysmograph chamber. A solution of citric acid (0.4 M) was nebulised using the Aerosol Delivery System (Buxco) and administered to the animals at a rate of nebulisation of 0.18 ml/min for 15 min. During the challenge, airflow in the chamber was recorded by the Buxco system and analysed for the transient increase in airflow produced by cough, in which rapid inspiration is followed by rapid expiration. The system was able to distinguish coughs from other expiratory responses, and the number of coughs was counted.
# Data analysis—Data from the treatment groups were compared with the vehicle group. Data are expressed as mean ±SEM of coughs produced by guinea pigs within each group during a 15 minutes citric acid aerosol exposure. Mean values were statistically analyzed by one-way analysis of variance (ANOVA) followed by the Dunnett's Multiple comparisons Test to evaluate significant differences between groups with p<0.05 being considered significant.
# heart rate = assay: Side-effects: increase in heart rate after drug instillation
# Method: In the following the heart rate is expressed as a percentage of the pre-value (heart beats per minute) preceding the drug administration. The increase in heart rate expressed in percent corresponds to the difference of heart rate between the vehicle group and the treated group recorded 20 minutes after drug instillation.
# cough reflex = settings: inhaled therapy in asthma, COPD or IPF; therapeutic doses; cited from earlier work
# [2] = test system: acetylcholine induced bronchoconstriction in guinea pigs; assay: Bronchoprotection: acetylcholine induced bronchospasm in anaesthetised guinea pigs (Konzett-Rössler); type: in vivo, guinea pig; settings: for Bronchoconstriction (ml overflow): 2 h before acetylcholine 14 μg/kg i.v., mean; for bronchoprotective FED: first dose without side-effect displaying 80 to 100% efficacy
# Method: Animal-Male and female Dunkin-Harley guinea pigs were obtained from the Experimental Animal Breeding Centre of Harlan Winkelmann (Germany). After fasting overnight, but with free access to drinking water, animals with body weight of 400-500 g are used. Anesthesia and preparation-The anesthesia was induced by intraperitoneal injection of 50 mg/kg pentobarbital. Anesthesia was prolonged by intravenous infusion of pentobarbital (15 mg/kg/h) via the jugular vein. A tracheal cannula was introduced after tracheotomy for artificial ventilation. The internal jugular vein was cannulated for acetylcholine injection. Instrumentation-Bronchospasm was recorded with a modified version of the method of Konzett-Röβler described by […] et al, 1997. […] Lung resistance was measured as ml of overflow and was recorded, amplified and saved under Notocord files (Notocord-hem, Notocord, France). Blood pressure and heart rate were monitored from a carotid artery in order to check the anesthesia and the variability of the preparation. Experimental protocol-2 hours before acetylcholine challenge, guinea pigs were given the test compound or its vehicle intra-tracheally under a slight isoflurane anesthesia. 30 minutes before acetylcholine challenge, lung resistance and blood pressure were measured under anesthesia. […] Data analysis-Data from the treatment groups were compared with the vehicle group. Data are expressed as mean ±SD of ml of overflow. […] Mean values were statistically analyzed by one-way analysis of variance (ANOVA) followed by the Dunnett's Multiple comparisons Test to evaluate significant differences between groups with p<0.05 being considered significant.
# [3] = Dunkin-Hartley, guinea pig, in vivo, 20 min
# [4] = 1 μg/kg i.t., inhibition of acetylcholine bronchoconstriction
smiles,measurement,setting,value
COc1ccc(CC(C)NCC(O)c2ccc(O)c(NC=O)c2)cc1 (stereo not drawn) [Formoterol],Inhibition of cough (%) vs vehicle,[1]; 1 μg/kg i.t.,0%
same,Number of coughs,[1]; 1 μg/kg i.t.,26
same,Inhibition of cough (%) vs vehicle,[1]; 3 μg/kg i.t.,71 * %
same,Number of coughs,[1]; 3 μg/kg i.t.,7
same,Inhibition of cough (%) vs vehicle,[1]; 10 μg/kg i.t.,58 * %
same,Number of coughs,[1]; 10 μg/kg i.t.,10
same,Anti-tussive effect (%),[1]; 3 μg/kg,71%
same,Anti-tussive effect (%),[1]; 10 μg/kg,58%
same,increase in heart rate,"heart rate; 10 μg/kg, 20 min after administration",21%
same,Dose inducing side-effect (increase in heart rate),"heart rate; first dose increasing heart rate at least 10% vs vehicle, 20 min after administration",10 µg/kg
OCc1cc(C(O)CNCCCCCCOCCCCc2ccccc2)ccc1O (stereo not drawn) [Salmeterol],effect on cough reflex,cough reflex,display anti-tussive effect
COc1ccc2c3c1O[C@H]1[C@@H](O)C=C[C@H]4[C@@H](C2)N(C)CC[C@@]341 [Codeine],Inhibition of cough (%) vs vehicle,[1]; 1 mg/kg i.t.,17%
same,Number of coughs,[1]; 1 mg/kg i.t.,20
same,Inhibition of cough (%) vs vehicle,[1]; 3 mg/kg i.t.,42 * %
same,Number of coughs,[1]; 3 mg/kg i.t.,14
same,Inhibition of cough (%) vs vehicle,[1]; 10 mg/kg i.t.,58 * %
same,Number of coughs,[1]; 10 mg/kg i.t.,10
same,Inhibition of cough (%) vs vehicle,[1]; 30 mg/kg i.t.,71 * %
same,Number of coughs,[1]; 30 mg/kg i.t.,7
CCc1cc2c(cc1CC)CC(NC[C@H](O)c1ccc(O)c3[nH]c(=O)ccc13)C2 [Indacaterol],Inhibition of cough (%) vs vehicle,[1]; 3 μg/kg i.t.,0%
same,Number of coughs,[1]; 3 μg/kg i.t.,26
same,Inhibition of cough (%) vs vehicle,[1]; 10 μg/kg i.t.,0%
same,Number of coughs,[1]; 10 μg/kg i.t.,32
same,Inhibition of cough (%) vs vehicle,[1]; 30 μg/kg i.t.,0%
same,Number of coughs,[1]; 30 μg/kg i.t.,38
same,Anti-tussive effect (%),[1]; 3 μg/kg,0%
same,Anti-tussive effect (%),[1]; 10 μg/kg,0%
same,Anti-tussive effect (%),[1]; 30 μg/kg,0%
same,Dose inducing side-effect (increase in heart rate),heart rate; [3],100 µg/kg
same,ratio dose inducing side-effect/bronchoprotective FED,"heart rate; guinea pig, in vivo, 20 min",10
same,"safety margin, times less than for Olodaterol","heart rate; guinea pig, in vivo, 20 min",10
same,Bronchoconstriction (ml overflow),[2]; 1 μg/kg i.t.,34 mL
same,Bronchoprotection (%),[2]; [4],8%
same,Bronchoconstriction (ml overflow),[2]; 3 μg/kg i.t.,18 mL
same,Bronchoprotection (%),"[2]; 3 μg/kg i.t., inhibition of acetylcholine bronchoconstriction",51 * %
same,Bronchoconstriction (ml overflow),[2]; 10 μg/kg i.t.,6 mL
same,Bronchoprotection (%),"[2]; 10 μg/kg i.t., inhibition of acetylcholine bronchoconstriction",84 * %
same,Bronchoconstriction (ml overflow),[2]; 30 μg/kg i.t.,5 mL
same,Bronchoprotection (%),"[2]; 30 μg/kg i.t., inhibition of acetylcholine bronchoconstriction",86 * %
same,ED50,"[2]; Cavia porcellus, inhaled or nasal, i.t.",3 µg/kg
same,bronchoprotective FED,[2],10 µg/kg
same,Bronchoprotection (%),"[2]; summary, 1 μg/kg",8%
same,Bronchoprotection (%),"[2]; summary, 3 μg/kg",51%
same,Bronchoprotection (%),"[2]; summary, 10 μg/kg",84%
same,Bronchoprotection (%),"[2]; summary, 30 μg/kg",86%
COc1ccc(CC(C)(C)NC[C@H](O)c2cc(O)cc3c2OCC(=O)N3)cc1 [Olodaterol],Inhibition of cough (%) vs vehicle,[1]; 0.01 μg/kg i.t.,33%
same,Number of coughs,[1]; 0.01 μg/kg i.t.,16
same,Inhibition of cough (%) vs vehicle,[1]; 0.03 μg/kg i.t.,58 * %
same,Number of coughs,[1]; 0.03 μg/kg i.t.,10
same,Inhibition of cough (%) vs vehicle,[1]; 0.1 μg/kg i.t.,79 * %
same,Number of coughs,[1]; 0.1 μg/kg i.t.,5
same,Inhibition of cough (%) vs vehicle,[1]; 0.3 μg/kg i.t.,79 * %
same,Number of coughs,[1]; 0.3 μg/kg i.t.,5
same,Inhibition of cough (%) vs vehicle,[1]; 1 μg/kg i.t.,75 * %
same,Number of coughs,[1]; 1 μg/kg i.t.,6
same,Inhibition of cough (%) vs vehicle,[1]; 3 μg/kg i.t.,79 * %
same,Number of coughs,[1]; 3 μg/kg i.t.,5
same,antitussive Fully Effective Dose (FED),[1]; first dose without side-effect displaying 70 to 80% efficacy,0.1 µg/kg
same,Anti-tussive effect (%),[1]; 0.01 μg/kg,33%
same,Anti-tussive effect (%),[1]; 0.03 μg/kg,58%
same,Anti-tussive effect (%),[1]; 0.1 μg/kg,79%
same,Anti-tussive effect (%),[1]; 0.3 μg/kg,79%
same,Anti-tussive effect (%),[1]; 1 μg/kg,75%
same,Dose inducing side-effect (increase in heart rate),heart rate; [3],30 µg/kg
same,ratio dose inducing side-effect/antitussive FED,heart rate; [3],300
same,ratio dose inducing side-effect/bronchoprotective FED,heart rate; [3],100
same,addiction or arrhythmia,heart rate; in vivo,no addiction or arrhythmia
same,Bronchoconstriction (ml overflow),[2]; 0.01 μg/kg i.t.,25 mL
same,Bronchoprotection (%),"[2]; 0.01 μg/kg i.t., inhibition of acetylcholine bronchoconstriction",32%
same,Bronchoconstriction (ml overflow),[2]; 0.03 μg/kg i.t.,14 mL
same,Bronchoprotection (%),"[2]; 0.03 μg/kg i.t., inhibition of acetylcholine bronchoconstriction",62 * %
same,Bronchoconstriction (ml overflow),[2]; 0.1 μg/kg i.t.,8 mL
same,Bronchoprotection (%),"[2]; 0.1 μg/kg i.t., inhibition of acetylcholine bronchoconstriction",78 * %
same,Bronchoconstriction (ml overflow),[2]; 0.3 μg/kg i.t.,4 mL
same,Bronchoprotection (%),"[2]; 0.3 μg/kg i.t., inhibition of acetylcholine bronchoconstriction",89 * %
same,Bronchoconstriction (ml overflow),[2]; 1 μg/kg i.t.,2 mL
same,Bronchoprotection (%),[2]; [4],95 * %
same,bronchoprotective FED,[2],0.3 µg/kg
same,minimum effective dose for bronchoprotection,[2]; i.t.,0.01 µg/kg
same,Bronchoprotection (%),"[2]; summary, 0.01 μg/kg",32%
same,Bronchoprotection (%),"[2]; summary, 0.03 μg/kg",62%
same,Bronchoprotection (%),"[2]; summary, 0.1 μg/kg",78%
same,Bronchoprotection (%),"[2]; summary, 0.3 μg/kg",89%
same,Bronchoprotection (%),"[2]; summary, 1 μg/kg",95%
